Laboratory results: patent US11771685B2, “Compounds for the treatment of neurological or mitochondrial diseases” (MUSC FOUNDATION FOR RESEARCH DEVELOPMENT, priority 2018, dated 2023)
Like-named read-outs stand apart in the source and are kept apart here.

Columns and labels:
[1] = system: PTZ-induced seizure activity in zebrafish larvae; assay: Zebrafish PTZ-induced seizure model; format: in vivo; settings: for minimal effective concentration: 1 hr pre-treatment, 10 mM PTZ, read-out: Anti-seizure activity: lowest tested dose with significant difference vs PTZ-only group
Method: The zebrafish PTZ-induced seizure model was used to determine the most promising compounds' in vivo efficacy. Zebrafish larvae (7 dpf) were treated with the compound for 1 hr prior to inducing seizures with PTZ. As established by previous larval zebrafish anti-seizure studies (Rahn et al., 2014; Hansen et al., 2004; Baraban et al., 2005), total distance traveled by each fish after seizure induction was measured and used as a proxy for seizure activity. Following collection of locomotor data, observation of a startle response and visual inspection for abnormal morphology confirmed that alterations in swim activity were not caused by compound toxicity.
We induced seizures in 7 dpf zebrafish larvae by the addition of […] PTZ as originally developed by Baraban et al., 2005. In a 48-well plate, one 7-dpf zebrafish was added per well. Larvae were dosed with each compound at a sub-lethal dose 1 hr prior to PTZ treatment. Two control rows were included with each experiment—tank water only control and PTZ only. Seizures were induced by adding PTZ to wells to yield a final concentration of 10 mM. After 5 min, the plate was transferred to the Daniovision instrument (Noldus Information Technology) and the chamber light was turned on. After 2 min, MediaRecorder (Noldus) was used to record video for 15 min. A small number of videos were acquired at 25 frames per second, but the majority of data were acquired at 60 frames per second. […] Ethovision XT software (Noldus) was used to track the fish movement from the video images in order to calculate the total distance traveled over 15 min. All experimental comparisons were made between animals from the same clutch.
Statistical analyses were performed with GraphPad Prism 6 software. For the in vitro HT22 oxytosis assay, dose-response data were fit using GraphPad Prism's log(inhibitor) vs normalized response-variable slope parameters to determine EC50 values and 95% confidence intervals. For the zebrafish locomotive anti-seizure activity data, multiple comparisons were made using a one-way analysis of variance (ANOVA) with a Kruskal-Wallis Test, followed by the Dunn's Method to determine significant differences between all pairs or between control and experimental groups using the Dunn Method for Joint Ranking. Differences were considered statistically significant when p<0.05. Data from zebrafish experiments are represented as scatter dot plots of individual measurements, with means±standard deviation indicated by bars.

[2] = In vivo pharmacokinetics in CD-1 mice; set-up: species or system mouse; settings: for Vd: read-out: Vss
Method: (§1) PK studies on 3 and 25 were carried out in CD-1 mice. Three males were dosed via oral gavage needle for oral administration at 20 mg/kg (10 mL/kg) or via intravenous administration at 5 mg/kg (10 mL/kg). Blood samples were taken at time intervals between 5 min and 24 hr from each animal.
The PK studies of 1 were performed by WuXi AppTec and PK studies of 3 and 25 were performed by Touchstone Biosciences (Peng et al., 2006b; Peng et al., 2001; Peng et al., 2006a; Peng et al., 2009). Male CD-1 mice were fed a standard laboratory rodent diet and housed in individual cages on a 12 hr light and 12 hr dark cycle with room temperature maintained at 22±3° C. and relative humidity at 50±20%. Animals were typically fasted overnight before dosing, with food returned after the 6 hr blood samples were obtained. Water was provided ad libitum throughout the study. The dosing solution of each test compound was prepared in a desired oral or intravenous formulation. Three to four animals were dosed via gavage needle for oral administration at 10-20 mg/kg (10-20 mL/kg) or via tail vein injection for IV administration at 2-5 mg/kg (2-5 mL/kg). […] Fluid replacement (1.5 mL of 0.9% NaCl injection, USP) was administered subcutaneously once after the 2 hr blood sampling. Blood samples were collected in BD Microtainer tubes coated with anticoagulant, placed on ice, and within 30 min, centrifuged at 15,000 g for 5 min to obtain plasma samples. All plasma samples were stored at −70° C. until analysis.
Plasma samples were prepared as follows. Three volumes of acetonitrile containing internal standard was added to one volume of plasma to precipitate proteins. Samples were centrifuged (3000 g for 10 min) and supernatant removed for analysis by LC-MS/MS. Calibration standards and quality controls were made by preparation of a 1 mg/mL stock solution and subsequently a series of working solutions in methanol:water (1:1, v/v) which were spiked into blank plasma to yield a series of calibration standard samples in the range of 1.0 ng/mL to 10 μg/mL and quality control samples at three concentration levels (low, middle and high). All incurred PK/PD plasma samples were treated identically to the calibration standards and quality control samples. LC-MS-MS analysis was performed utilizing multiple reaction monitoring for detection of characteristic ions for each drug candidate, additional related analytes and internal standard.
Plasma concentrations were measured as described above to determine a concentration vs. time profile. The area under the plasma concentration vs time curve (AUC) was calculated using the linear trapezoidal method. Fitting of the data to obtain pharmacokinetic parameters was carried out using non-compartmental analysis. Key PK parameters reported following intravenous administration are as follows: terminal half-life t1/2, initial plasma concentration C0, area under the plasma concentration vs. time curve AUC, volume of distribution at steady-state Vss, total plasma clearance CLp, and mean residence time MRT. Key PK parameters reported following extravascular administration are as follows: terminal half-life t1/2, maximum plasma concentration Cmax, time to reach maximum plasma concentration tmax, area under the plasma concentration vs. time curve AUC, mean residence time MRT, and bioavailability F. All parameters are expressed for individual animals as well as mean, standard deviation, and coefficient of variation.

[3] = Clinical observations in dosed mice; format: in vivo; settings: for pigmented urine: efficacy studies, 5% DMSO:95% Neobee formulation
Method: as §1
PO PK experiments were repeated for 25, with oral dosing at 20 mg/kg and 10 mL/kg of a suspension with 1% Tween 80:1% carboxymethylcellulose in water.
Table 2 provides a summary of efficacy studies in vivo in mice, and in rat brain slices, using the 5% DMSO:95% Neobee formulation.

[4] = intraperitoneal 20 mg/kg, 5% DMSO: 95% neobee
[5] = intravenous 5 mg/kg, 20% DMA: 40% PEG300: 40% H2O
[6] = male, CD-1, mouse, plasma, ip, 20 mg/kg, intraperitoneal 20 mg/kg, 5% DMSO: 95% neobee
[7] = male, CD-1, mouse, plasma, iv, 5 mg/kg, intravenous 5 mg/kg, 20% DMA: 40% PEG300: 40% H2O
[8] = male, CD-1, mouse, plasma, iv, 5 mg/kg, intravenous 5 mg/kg, 20% DMA: 40% PEG300: 40% H2O, read-out: CLp
[9] = male, CD-1, mouse, plasma, iv, 5 mg/kg, 3 and 25 at 5 mg/kg
[10] = male, CD-1, mouse, plasma, po, 20 mg/kg, oral 20 mg/kg, 5% DMSO: 95% Neobee
[11] = male, CD-1, mouse, plasma, po, 20 mg/kg, oral 20 mg/kg, 20% DMA-40% PEG300-40% H2O
[12] = male, CD-1, mouse, plasma, intraperitoneal 20 mg/kg, 5% DMSO: 95% neobee, read-out: Clast
[13] = male, CD-1, mouse, plasma, oral 20 mg/kg, 5% DMSO: 95% Neobee, read-out: Clast
[14] = oral 20 mg/kg, 5% DMSO: 95% Neobee
[15] = oral 20 mg/kg, 20% DMA-40% PEG300-40% H2O

CCC#CCNC1=CC(=O)c2ccccc2C1=O [Compound 3, 2-(Pent-2-yn-1-ylamino)naphthalene-1,4-dione]
anti-seizure activity ([1]; 7 dpf larvae, PTZ): decrease seizures in a zebrafish model of epilepsy in a dose-dependent manner
minimal effective concentration ([1]; Danio rerio, 7 dpf larvae): ≤ 5 µM
inhibition in vivo at 5 µM ([1]; Danio rerio, 5 μM, read-out: reduction of PTZ-induced locomotor activity): 62%
inhibition in vivo at 10 µM ([1]; Danio rerio, 10 μM, read-out: reduction of PTZ-induced locomotor activity): 80%
inhibition in vivo at 20 µM ([1]; Danio rerio, 20 μM, read-out: reduction of PTZ-induced locomotor activity): 91%
tlast [2, 4]: 24 h
Clast [2, 5]: 1.37 ng/mL
AUCinf/D ([2]; intravenous, 5 mg/kg): 89.6 h·(ng/mL)/(mg/kg)
tlast ([2]; intravenous, 5 mg/kg): 24 h
t1/2 ([2]; intravenous, 3 and 25 at 5 mg/kg, 5 mg/kg): ~15 h
Kp ([2]; male, CD-1, mouse, brain/plasma, listed under intravenous 5 mg/kg, read-out: Brain Plasma Ratio): 0.373
AUC(0-t) [2, 6]: 0.463 µg·h/mL
half-life [2, 6]: 7.25 h
AUC(0-inf) [2, 7]: 0.448 µg·h/mL
AUC(0-t) [2, 7]: 0.421 µg·h/mL
MRT inf [2, 7]: 4.28 h
half-life [2, 7]: 14.7 h
clearance [2, 8]: 11.3 L/h/kg
Vd [2, 7]: 48.6 L/kg
clearance ([2]; male, CD-1, mouse, plasma, iv, 5 mg/kg, intravenous, 3 and 25 at 5 mg/kg, read-out: CL): 11.3 L/h/kg
Vd ([2]; male, CD-1, mouse, plasma, iv, 5 mg/kg, intravenous, 3 and 25 at 5 mg/kg): 48.6 L/kg
AUC(0-inf) [2, 9]: 0.448 µg·h/mL
AUC(0-t) [2, 9]: 0.421 µg·h/mL
MRT inf [2, 9]: 4.28 h
half-life [2, 9]: 14.7 h
AUC(0-inf) [2, 10]: 0.688 µg·h/mL
AUC(0-t) [2, 10]: 0.682 µg·h/mL
MRT inf [2, 10]: 5.71 h
Tmax [2, 10]: 4 h
half-life [2, 10]: 3.34 h
Cmax ([2]; male, CD-1, mouse, plasma, po, 20 mg/kg, oral 20 mg/kg, 5% DMSO: 95% Neobee, read-out: Cmax): 90.2 ng/mL
AUC(0-inf) [2, 11]: 0.992 µg·h/mL
AUC(0-t) [2, 11]: 0.738 µg·h/mL
MRT inf [2, 11]: 5.82 h
Tmax [2, 11]: 0.139 h
half-life [2, 11]: 5.27 h
Cmax ([2]; male, CD-1, mouse, plasma, po, 20 mg/kg, oral 20 mg/kg, 20% DMA-40% PEG300-40% H2O, read-out: Cmax): 394 ng/mL
concentration at 24 hr [2, 12]: 1.47 ng/mL
concentration at 24 hr ([2]; male, CD-1, mouse, plasma, intravenous, 5 mg/kg, read-out: Clast): 1.37 ng/mL
C0 ([2]; male, CD-1, mouse, plasma, intravenous, 3 and 25 at 5 mg/kg): 1520 ng/mL
concentration at 24 hr [2, 13]: 1.21 ng/mL
concentration at 8 hr ([2]; male, CD-1, mouse, plasma, oral 20 mg/kg, 20% DMA-40% PEG300-40% H2O, 8 hr post-dose, read-out: Clast): 33.1 ng/mL
F [2, 14]: 38.4%
tlast [2, 14]: 24 h
AUCinf/D [2, 15]: 49.6 h·(ng/mL)/(mg/kg)
Cmax/D [2, 15]: 19.8 (ng/mL)/(mg/kg)
F [2, 15]: 55.3%
tlast [2, 15]: 8 h
pigmented urine [3]: showed pigmented urine
clinical symptoms during the IV study ([3]; intravenous 5 mg/kg, CD-1 mice): no abnormal clinical symptoms

CC(C)CCNC1=CC(=O)c2ccccc2C1=O [Compound 17, 2-(Isopentylamino)naphthalene-1,4-dione]
minimal effective concentration ([1]; Danio rerio, 7 dpf larvae): 5 µM
T1/2 [2, 4]: 3.38 h
tlast [2, 4]: 24 h
Clast [2, 5]: 0.154 ng/mL
T1/2 [2, 5]: 4.47 h
AUC(0-t) [2, 6]: 1.72 µg·h/mL
AUC(0-inf) [2, 7]: 0.637 µg·h/mL
MRT inf [2, 7]: 0.874 h
clearance [2, 8]: 7.86 L/h/kg
Vd [2, 7]: 6.89 L/kg
AUC(0-inf) [2, 10]: 0.914 µg·h/mL
MRT inf [2, 10]: 2.5 h
Tmax [2, 10]: 0.25 h
concentration at 24 hr [2, 12]: 1.95 ng/mL
C0 ([2]; male, CD-1, mouse, plasma, intravenous 5 mg/kg, 20% DMA: 40% PEG300: 40% H2O): 1910 ng/mL
concentration at 24 hr [2, 13]: 1.43 ng/mL
Cmax [2, 14]: 1025 ng/mL
F [2, 14]: 35.9%
t1/2 [2, 14]: 5.28 h
tlast [2, 14]: 24 h
pigmented urine [3]: Pigmented urine was not seen
